Assays:
[1] = system: DU145; test: TH2870 sensitivity in prostate cancer cell lines; format: cell-based; conditions: Homo sapiens, DU-145
[2] = system: PC-3; test: TH2870 sensitivity in prostate cancer cell lines; format: cell-based; conditions: Homo sapiens
[3] = system: HuCCT1; test: TH2870 sensitivity in liver cancer cells; format: cell-based, human
[4] = Pharmacokinetics of TH2870 in CD-1 mice, single IV bolus and single IP dose; conditions: mouse, in vivo
Procedure: The pharmacokinetics of TH2870 in CD-1 mice following a single intravenous bolus dose (5 mg/kg) and a single intraperitoneal dose (10 mg/kg) were determined.

[5] = system: Hep 3B2.1-7; test: TH2870 sensitivity in liver cancer cells; format: cell-based, human; conditions: AKR1C3 expression /
[6] = system: SNU-475; test: TH2870 sensitivity in liver cancer cells; format: cell-based, human; conditions: AKR1C3 expression ++++
[7] = system: PLC/PRF/5; test: TH2870 sensitivity in liver cancer cells; format: cell-based, human; conditions: AKR1C3 expression +++
[8] = system: LIXC-003; test: TH2870 sensitivity in liver cancer cells; format: cell-based, human; conditions: AKR1C3 expression ++++
[9] = system: H460 NSCLC xenograft; test: Example 4-I antitumor efficacy, ectopic H460 NSCLC xenograft model; format: in vivo, female nude mice (nu/nu); conditions: iv, Q7D × 3; for TGD500, Days (vs. vehicle) / TGD1000, Days (vs. vehicle): H460; for TGI: H460, 250 mm3 tumors on day 1
Excerpt: (§1) Specific pathogen-free homozygous female nude mice (nu/nu, Charles River Laboratories) were used. Mice were given food and water ad libitum and housed in microisolator cages. Four to six week old animals were identified by microchips (Locus Technology, Manchester, Md., USA) at the time of the experiments. All animal studies were approved by the Institutional Animal Care and Use Committee at Threshold Pharmaceuticals, Inc.
(§2) All cell lines were from the American Type Culture Collection (ATCC, Rockville, Md., USA).
(§3) Cells were mixed with Matrigel (50% with exception for 30% in the H460) and 0.2 ml per mouse were subcutaneously implanted to the flank area of the animals. When tumor size reached 100-150 250 mm3, mice were randomized into experimental or vehicle groups with 10 mice/group and treatment was started (Day 1). The tested compounds were formulated in 5% DMSO in D5W. The regimens employed in the examples include IP, QD×5/wk (5 days on, 2 days off) as one cycle, for a total of 2 cycles; IP, once; IP, weekly for total 3 weeks; and IV, weekly for 3 weeks. Tumor growth and body weight were measured twice a week. Tumor volume was calculated as (length×width2)/2. Drug efficacy was assessed as Tumor Growth Inhibition (TGI) and Tumor Growth Delay (TGD). TGI was defined as (1−ΔT/ΔC)×100, where ΔT/ΔC presented the ratio of the change in mean (or median, if variation within the group was relatively large) tumor volume of the treated group and of the control group. TGD was calculated as the extra days for the treated tumor to reach 500 mm3 or 1000 mm3 as compared to the control group. Animals were culled when individual tumor size reached over 2000 mm3 or mean tumor volume exceeded 1000 mm3 in the group. Data are expressed as the mean±SEM. One-way analysis of variance with Dunnett post comparison test (GraphPad Prism 4) or two-tailed student's t-test were used for analysis. A P level <0.05 was considered statistically significant.
(§4) The compound TH-2870 was tested in a H460 model. The compound was dosed follows. 1.5, 5 or 15 mg/kg, IV, weekly for 3 weeks at 250 mm^3 tumors on day 1 (10 animals per group average tumor volume), comparing with docetaxel. The antitumor effects and the safety of administration are graphically illustrated below.

[10] = system: Hep G2; test: TH2870 sensitivity in liver cancer cells; format: cell-based, human
[11] = Example 4-I body weight change, H460 xenograft study; format: in vivo, female nude mice (nu/nu); conditions: iv, Q7D × 3
Procedure: as §3, §4

[12] = Example 4-D body weight change and lethal toxicity, A549 xenograft study; format: in vivo, female nude mice (nu/nu); conditions: for Lethal Tox: 10 animals per group
Procedure: as §3
(§5) The compounds were tested in another A549 model. The compounds were dosed as follows. Daily IP dosing: 5 doses then 2 days off then 5 more doses starting at 100 mm^3 tumors on day 1 (10 animals per group average tumor volume). The antitumor effects and the safety of administration are graphically illustrated below.

[13] = Nu-Foxn1nu NU/NU, mouse, in vivo, ip, 20 mg/kg
Procedure: The pharmacokinetics of TH2870 were determined in Mouse/Nu-Foxn 1^nu NU/NU mice with A549 (non small cell lung), A375 (melanoma) and 786-O (renal cell) human tumor xenograft models following a single intraperitoneal dose of 20 mg/kg.

[14] = system: HCCC-9810; test: TH2870 sensitivity in liver cancer cells; format: cell-based, human; conditions: AKR1C3 expression ++++
[15] = Example 4-C body weight change, A375 xenograft study; format: in vivo, female nude mice (nu/nu); conditions: 20 mpk, qd × 5 × 2, ip
Summary of the method: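 Cells in 50% Matrigel were implanted subcutaneously in the flank, and mice (10/group) were randomized at 100-150 mm3. Compounds in 5% DMSO/D5W were dosed IP QD×5/wk ×2 cycles, IP once, IP weekly ×3 wk, or IV weekly ×3 wk. Body weight and tumour volume were measured twice weekly; TGI = (1−ΔT/ΔC)×100.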

[16] = system: LIXC-006; test: TH2870 sensitivity in liver cancer cells; format: cell-based, human; conditions: AKR1C3 expression +++
[17] = system: LIXC-011; test: TH2870 sensitivity in liver cancer cells; format: cell-based, human; conditions: AKR1C3 expression ++++
[18] = system: NCI-H660; test: TH2870 sensitivity in prostate cancer cell lines; format: cell-based; conditions: Homo sapiens
[19] = system: A549 NSCLC xenograft; test: Example 4-D antitumor efficacy, ectopic A549 NSCLC xenograft model; format: in vivo, female nude mice (nu/nu)
Excerpt: as §1, §2, §3, §5

[20] = system: HLF; test: TH2870 sensitivity in liver cancer cells; format: cell-based, human; conditions: AKR1C3 expression /
[21] = Homo sapiens, read-out: RelIC50

CC(OP(=O)(N1CC1)N1CC1)c1ccc([N+](=O)[O-])c(Oc2cccc(C(=O)N(C)C)c2)c1 (stereo not drawn) [Compound 2870]
IC50 [1]: 0.0429 µM
IC50 [2]: 0.161 µM
Max Inhibition % ([3]; AKR1C3 expression +): 66.7%
IC50 ([3]; Homo sapiens, HuCCT-1, AKR1C3 expression +, read-out: RelIC50): 0.125 µM
AUC ([4]; IP 10 mg/kg): 725 ng·h/mL
Cmax ([4]; IP 10 mg/kg): 4020 ng/mL
Tmax ([4]; IP 10 mg/kg): 5 min
half-life ([4]; IP 10 mg/kg): 9 min
AUC ([4]; IV bolus 5 mg/kg): 963 ng·h/mL
Cmax ([4]; IV bolus 5 mg/kg): 6790 ng/mL
Tmax ([4]; IV bolus 5 mg/kg): 2 min
clearance ([4]; IV bolus 5 mg/kg): 86.5 mL/min/kg
half-life ([4]; IV bolus 5 mg/kg): 6.56 min
Vd ([4]; IV bolus 5 mg/kg, read-out: Vss): 0.668 L/kg
Max Inhibition % [5]: 8.1%
IC50 [5, 21]: > 1 µM
Max Inhibition % [6]: 100.4%
IC50 [6, 21]: 0.008 µM
Max Inhibition % [7]: 53.3%
Max Inhibition % [8]: 44.6%
IC50 [8, 21]: 0.0054 µM
TGD500, Days (vs. vehicle) ([9]; 1.5 mg/kg): 18 days
TGD1000, Days (vs. vehicle) ([9]; 1.5 mg/kg): 18 days
TGI ([9]; 1.5 mg/kg): 100.0%
TGD500, Days (vs. vehicle) ([9]; 5 mg/kg): 36 days
TGD1000, Days (vs. vehicle) ([9]; 5 mg/kg): 38 days
TGI ([9]; 5 mg/kg): 121.3%
TGD500, Days (vs. vehicle) ([9]; 15 mg/kg): 49 days
TGD1000, Days (vs. vehicle) ([9]; 15 mg/kg): 50 days
TGI ([9]; 15 mg/kg): 121.6%
Max Inhibition % ([10]; AKR1C3 expression ++++): 98.9%
IC50 ([10]; Homo sapiens, HepG2, AKR1C3 expression ++++, read-out: RelIC50): 0.0055 µM
Max. BW loss % ([11]; 1.5 mg/kg): 7.6%
Max. BW loss % ([11]; 5 mg/kg): 7.6%
Max. BW loss % ([11]; 15 mg/kg): 5.8%
Max. BW loss % ([12]; 20 mg/kg IP QD × 5/wk × 2 wks): 0.3%
Lethal Tox ([12]; 20 mg/kg IP QD × 5/wk × 2 wks): 0
Max. BW loss % ([12]; 40 mg/kg IV 2/wk × 2 wks): 2.0%
Lethal Tox ([12]; 40 mg/kg IV 2/wk × 2 wks): 1
activation of TH2870 in liver (TH2660 relative to TH2870) [13]: ~13 fold
activation of TH2870 in tumor (TH2660 relative to TH2870) [13]: ~148 fold
Max Inhibition % [14]: 95.4%
Max. BW loss % [15]: 0%
Max Inhibition % [16]: 71.7%
IC50 [16, 21]: 0.116 µM
Max Inhibition % [17]: 97.4%
IC50 [17, 21]: 0.0408 µM
IC50 [18]: > 0.3 µM
TGD 500 ([19]; 20 mg/kg IP QD × 5/wk × 2 wks): >85 days
TGI ([19]; 20 mg/kg IP QD × 5/wk × 2 wks): 95.0%
TGD 500 ([19]; 40 mg/kg IV 2/wk × 2 wks): >85 days
TGI ([19]; 40 mg/kg IV 2/wk × 2 wks): 98.6%
Max Inhibition % [20]: 22.5%
IC50 [20, 21]: > 1 µM

Source: patent US10766914B2, “DNA alkylating agents” (OBI PHARMA, INC., priority 2015, dated 2020)
